Series [1] can be described thus: Ozone detection in human serum. As to conditions: human serum diluted in pH 7 buffer, ozone ~5 μM. The method, then:
FIG. 2E illustrates Ozone detection in human serum, wherein Left Sample: 4, no ozone; Right Sample: 4, + ozone.
One embodiment of the present invention utilized sensor 4 to detect ozone in human serum. […] One possible explanation may be due to the small Stokes shift that is found in fluorescein and its derivatives, which makes these fluorophores more prone to influences of scattering and interference.
Ozone detection in human serum. Human serum (1.0 mL) was diluted in pH 7 buffer ([PO4^3−]=5 mM) (3.0 mL). Solution A (5.0 μL, [compound 4]final=12.5 μM) was added to the resulting human serum mixture, and the samples were exposed to ozone (˜5 μM) at 24° C. followed by 1 hour incubation at 37° C. before fluorescence measurement. The experiment was performed in triplicate with an illustration of one of the tests represented in FIG. 2E.

The nature of series [2]: Ozone detection in ambient (outdoor) air. The conditions noted are these: 8 hours.
Protocol: In all cases, sensor 4=12.5 μM and all ozone assays were performed in 5:95 MeOH/pH 7 buffer. Solutions of senor 4 in 5:95 MeOH/pH 7 buffer were prepared and exposed to ambient air in various locations throughout a city on a hot, sunny day (˜32° C.) for 8 hours. A negative control was prepared in the same manner but incubated at 37° C. in a closed vial for 8 hours. […] Solutions of senor 4 ([4]final =12.5 μM) in 5:95 MeOH/pH 7 buffer ([PO4^3−]=5 mM) solution (4.0 mL) were prepared, and the samples were placed in high traffic outdoor areas for 8 hours. The samples were not exposed directly to sunlight. A negative control was prepared in the same manner but incubated at 37° C. in a closed vial for 8 hours. Following the 8 hour incubation period, the fluorescence of each sample was measured. Ozone detection in ambient air. Solution A (5.0 μL, [compound 4]final=12.5 μM) was added to a mixture of MeOH/pH 7 buffer ([PO4^3−]=5 mM) (5:95) (4.0 mL), and 4 samples were placed in 4 outdoor areas throughout University of Pittsburgh campus for 8 hours (high temperature=32.2° C.; AQI=43; PM2.5=64) on Jun. […] The samples were not exposed to direct sunlight. […] For each location, triplicate replicas were performed.
A short description of series [3]: Air pollutant specificity. As to conditions: acid 250 μM, metal 100 nM, 30 minutes at 37° C. Here is the method:
FIG. 3B illustrates Ozone specificity against other air pollutants: Sample A=no additive, Sample B=ozone, Sample C=HNO3, Sample D=H2SO4, Sample E=Pb, Sample F=Pd, Sample G=Pt. [Acid]=250 μM. [Metal]=100 nM. The acid samples were incubated in 5:95 MeOH/pure water for 30 minutes at 37° C. The metal samples were incubated in 5:95 MeOH/pH 7 buffer for 30 minutes at 37° C.
A number of other pollutants were screened to ensure that ozone was selectively detected. Nitrogen dioxide and sulfur dioxide convert to their corresponding acids in aqueous solution so nitric acid and sulfuric acid were screened. Lead, palladium and platinum, which are known pollutants emitted from automobiles, were also screened. […]
Acids: HNO3 or H2SO4 (10 μL of 0.1 M solution; [acid]final=250 μM) and solution A (5.0 μL, [compound 4]final=12.5 μM) were added to a mixture of MeOH/pure water solution (5:95) (4.0 mL), and the samples were incubated at 37° C. for 30 minutes before fluorescence measurement. […]
Metals: Pb, Pd or Pt solution (40 μL of 10 μM solution; [Metal]final=100 nM) and solution A (5.0 μL, [compound 4]final=12.5 μM) were added to a mixture of MeOH/pH 7 buffer ([PO4^3−]=5 mM) (5:95) (4.0 mL), and the samples were incubated at 37° C. for 30 minutes before fluorescence measurement. […]

Series [4] relates to Human bronchial epithelial cells (BEAS-2B). Kind of series: Live-cell imaging of human bronchial epithelial cells. As to conditions: human bronchial epithelial cells. The class given is cell-based. Here is the method: Human bronchial epithelial cells (BEAS-2B) (American Type Culture Collectin) were grown in LHC-9 medium (Invitrogen) on glass-bottomed Petri dishes (MatTek) precoated with 0.01 mg ml^−1 of human fibronectin (Invitrogen), 0.029 mg ml^−1 Vitrogen 100 (Cohesion) and 0.01 mg ml^−1 bovine serum albumin (Invitrogen) in LHC-9 medium. Immediately prior to imaging, cells were rinsed with Hank's balanced salt solution, which contained calcium and magnesium, and placed inside a temperature-controlled, airtight environmental chamber and maintained at 37° C. and 5% CO2. Images were obtained using a Nikon TE2000E-PFS (Perfect focus system) microscope equipped with a […] oil-immersion objective (Nikon, CFI PlanFluor, NA 1.3) and a fluorescien isothiocyanate longpass filter set (Chroma), a Q-Imaging SRV CCD camera (Q-imaging) and MetaMorph software (Molecular Devices). The motorized XYZ stage used was made by ASA (Eugege). Baseline images were collected before the addition of compound 8 and time-lapsed images obtained at 30 second intervals after the addition of compound 8 (250 nM). Once stage baseline had been achieved, multiple washes were carried out and the media replaced. The cells were then exposed to ozone (˜2.1 ppm) and monitored every 30 seconds for 15 minutes. Ozone was generated from medical grade oxygen (Valley Gas) via a model V1-0 ultraviolet ozonator (OREC) and analyzed with a Dasibi (Glendale) direct-reading instrument. Ozone concentrations were maintained by adjusting both the intensity of the ultraviolet light and the flow rate of oxygen. For each experiment, images were collected from six stages, with a minimum of five cells per position (a minimum of 30 cells per […]).
In another embodiment of the invention, human bronchial epitelial cells were incubated with compound 4 to determine ozone's role in cell biology. […] Based on studies why compound 4 and structurally related compounds are not fluorescent, it is believed that the hydroxymethyl group 4 may have been oxidized to give a more electron-withdrawing group, possible a carboxyl or aldehyde group, and so emit a strong fluorescence signal. To circumvent such an oxidation event, compound 8 was prepared specific for ozone. […] Once a steady baseline signal had been established and maintained for five minutes, ozone gas was generated within the airtight environmental chamber that housed the cell-culture dishes, and fluorescent signals were monitored using live-cell microscopy for approximately 15 minutes.
FIGS. 16A-H are photographs of live-cell imaging of human bronchial epithelial cells in the presence of ozone using compound 8. The left-hand panels (FIGS. A-E) are pseudocolour images that indicate the changes in emission intensity over time, and the right-hand panels show differential interference contrast images of the bronchial epithelial cells. FIG. 16A is before the addition of compound 8 (0 seconds). FIG. 16B illustrates the cell at 107 seconds that is a steady state intensity reached with compound 8 at 250 nM. FIG. 16C illustrates the cell at 326 seconds when ozone flow is started. FIG. 16D illustrates the cell at 536 seconds with the emission intensity increasing. FIG. 16E illustrates the cell at 675 seconds when emission maximum is reached. FIG. 16F illustrates the cell at 820 seconds when the cell starts to die. FIG. 16G illustrates the cell at 969 seconds where the cell emission continues to fall. FIG. 16H illustrates the cell at 1148 seconds when the ozone flow is stopped.

In the case of `C=CCCOc1cc2oc3cc(=O)c(Cl)cc-3c(-c3ccccc3CO)c2cc1Cl` [compound 4], the S/B in series [1] was 92; in series [2] (5:95 MeOH/pH 7 buffer) it was 10-17. For the same compound, in series [2], the “ozone level correlating to S/B, based on linear regression” value was 13-22 ppb. The “fluorescent signal with other air pollutants (species C-G)” value in series [3] is on record as “none of these species C-G produced a fluorescent signal”. The cell permeability entry in series [4] was “cell permeable”. In series [4] (no external ozone), the “fluorescence inside the cells in the absence of external ozone” value is “converted to a fluorescent compound inside the cells”.

(Values after patent US8361802B2, “Fluorescent ozone sensor” (University of Pittsburgh—Of the Commonwealth System of …, priority 2009, dated 2013).)
